# Earlier results as cited in publication PMC10096175, “An In Vitro Antimicrobial, Anticancer and Antioxidant Activity of N–[(2–Arylmethylthio)phenylsulfonyl]cinnamamide Derivatives” (Molecules, 2023).
# Tests used:
# [1] = tested on: mouse melanoma B16–F10 cell line; design: method as in PMID 21783370; settings: cited from earlier work
# [2] = tested on: human breast cancer MCF-7 cells; design: method as in PMID 30389289; settings: cited from earlier work
# [3] = tested on: quorum sensing system of C. violaceum; design: method as in doi:10.1016/j.ibiod.2018.06.003; settings: at 1 mM; cited from earlier work
# E. coli = tested on: E. coli; design: method as in PMID 19231901; settings: cited from earlier work
# S. aureus = tested on: S. aureus; design: method as in PMID 19231901; settings: cited from earlier work
smiles,measurement,setting,value
O=C(/C=C/c1ccc(Br)cc1)NS(=O)(=O)c1ccc(F)cc1 [(E)–3–(4–bromophenyl)–N–(4–fluorophenylsulfonyl)acrylamide],IC50,[1],1.2 µg/mL
O=C(/C=C/c1ccc(F)cc1)NS(=O)(=O)c1ccc(F)cc1 [(E)–3–(4–fluorophenyl)–N–(4-fluorophenylsulfonyl)acrylamide],IC50,[1],0.8 µg/mL
"O=C(/C=C/c1ccc2c(c1)OCO2)NS(=O)(=O)c1ccccc1 [(E)–3–(benzo[d][1,3]dioxol–5–yl)–N–(phenylsulfonyl)acrylamide]",IC50,[2],0.17 µg/mL
COC(=O)/C=C/c1ccccc1 [methyl trans-cinnamate],Quorum sensing inhibition,[3],completely inhibit
same,Concentration that completely inhibited growth,E. coli,6.2 mM
same,Concentration that completely inhibited growth,S. aureus,3.1 mM
